Measured values published in article PMC2774691, “Fluorescent Cascade and Direct Assays for Characterization of RAF Signaling Pathway Inhibitors” (Current Chemical Genomics, 2008).

Columns and labels:
FLT3 = target: T1, FLT3 (Homo sapiens, UniProt P36888); assay: FRET-based kinase profiling, FLT3; format: biochemical
T1 construct: purchased Invitrogen

CRAF [1] = target: T2, CRAF (Homo sapiens, UniProt P04049, Y340D/Y341D); assay: FRET-based kinase profiling, C-RAF; format: biochemical; conditions: 1 µM inhibitor, ATP at Km app
PDGFR α = target: T3, PDGFR α (Homo sapiens, UniProt P16234); assay: FRET-based kinase profiling, PDGFR α; format: biochemical
T3 construct: purchased Invitrogen
Protocol: (§1) The buffer consisted of 50 mM HEPES pH 7.5, 10 mM MgCl2, 1 mM EGTA, 0.01% Brij-35. Kinase reactions were typically initiated by the addition of either ATP or the active kinase and allowed to proceed for 1 hour at room temperature (RT). Following the 1 hour kinase assay, 5 µL of development reagent was added and the development reaction allowed to progress for 1 hour at RT, essentially as described previously.

HIPK4 = target: T4, HIPK4 (Homo sapiens, UniProt Q8NE63); assay: FRET-based kinase profiling, HIPK4; format: biochemical
T4 construct: purchased Invitrogen

VEGFR3 = target: T5, VEGFR3 (Homo sapiens, UniProt P35916); assay: FRET-based kinase profiling, VEGFR3; format: biochemical
T5 construct: purchased Invitrogen
Protocol: as §1

PDGFR α D842V = target: T6, PDGFR α D842V (Homo sapiens, UniProt P16234, D842V); assay: FRET-based kinase profiling, PDGFR α D842V; format: biochemical
T6 construct: purchased Invitrogen
Protocol: as §1

RET V804L = target: T7, RET V804L (Homo sapiens, UniProt P07949, V804L); assay: FRET-based kinase profiling, RET V804L; format: biochemical
T7 construct: purchased Invitrogen
Protocol: as §1

RET = target: T8, RET (Homo sapiens, UniProt P07949); assay: FRET-based kinase profiling, RET; format: biochemical
T8 construct: purchased Invitrogen
Protocol: as §1

RET Y791F = target: T9, RET Y791F (Homo sapiens, UniProt P07949, Y791F); assay: FRET-based kinase profiling, RET Y791F; format: biochemical
T9 construct: purchased Invitrogen
Protocol: as §1

FLT3 D835Y = target: T10, FLT3 D835Y (Homo sapiens, UniProt P36888, D835Y); assay: FRET-based kinase profiling, FLT3 D835Y; format: biochemical
T10 construct: purchased Invitrogen

PDGFR α T674I = target: T11, PDGFR α T674I (Homo sapiens, UniProt P16234, T674I); assay: FRET-based kinase profiling, PDGFR α T674I; format: biochemical
T11 construct: purchased Invitrogen
Protocol: as §1

BRAF V599E-MEK1-ERK2 = assay: B-RAF V599E-MEK1-ERK2 triple cascade FRET assay; format: biochemical; conditions: 100 μM ATP; read-out: Inhibitor IC50, FRET Triple BRAF V599E-MEK1-ERK2
BRAF-MEK1-ERK2 = assay: B-RAF-MEK1-ERK2 triple cascade FRET assay; format: biochemical; conditions: 100 μM ATP; read-out: Inhibitor IC50, FRET Triple BRAF-MEK1-ERK2
[2] = system: B-RAF, B-RAF V599E, or C-RAF triple cascades; assay: three RAF triple cascade FRET assays; format: biochemical; conditions: 100 μM ATP; for IC50: one value or range for the three RAF triple cascades
ERK2 = target: T12, ERK2 (Homo sapiens, UniProt P28482); assay: ERK2 direct FRET kinase assay; format: biochemical; conditions: 100 μM ATP; for IC50: read-out: Inhibitor IC50, FRET Direct ERK2; for inhibition of ERK2 direct assay: FRET
T12 construct: The following kinases were all full-length: B-RAF, unactive MEK1, active MEK1, unactive-fluorescein-labeled MEK1, active ERK2, and unactive ERK2; purchased Invitrogen
Protocol: FRET-based kinase data was processed in two steps. […] In order to apply equation 1, the 0% and 100% phosphorylation controls were used to establish the minimum and maximum emission ratio values on each assay plate. The 0% phosphorylation control was obtained from a mock kinase reaction run in the absence of ATP. The 100% phosphorylation control was obtained from a mock kinase reaction containing fully phosphorphorylated control peptide. The percent phosphorylation was calculated using the following equation: […]

MEK1-ERK2 = MEK1-ERK2 double cascade FRET assay; format: biochemical; conditions: 100 μM ATP; for IC50: read-out: Inhibitor IC50, FRET Double MEK1-ERK2; for inhibition of MEK1-ERK2 double cascade assay: FRET
[3] = system: B-RAF, B-RAF V599E, and C-RAF; assay: RAF direct TR-FRET assays; format: biochemical; conditions: 100 μM ATP
Protocol: Development of the TR-FRET assay for RAF using a fluorescein-MEK1 substrate and terbium-labeled phospho-[Ser 217/221] MEK1 antibody has been described. Briefly, 200 nM of fluorescein-MEK1 was used as a substrate in a 10 µL assay. Reactions were conducted in the same 384-well plate type and kinase buffer as described for the FRET assays, initiated by the addition of ATP, and allowed to proceed for 1 hour at RT. After one hour, a 10 µL solution of EDTA and terbium-labeled phospho-[Ser 217/221] MEK1 antibody in 20 mM Tris, pH 7.5 and 0.01% NP-40 was added for a final well volume of 20 µL with final concentrations of antibody and EDTA at 2 nM and 10 mM, respectively. Following a 1 hour incubation at RT, plates were read as described previously. For TR-FRET-based assays, the average maximum signal to basal ratio ( ± standard deviation) obtained using eight different kinases was 8.9 ± 1.0. Inhibition assays were performed by adding 2.5 µL of inhibitor to a 5 µL solution of kinase and substrate, followed by 2.5 µL of ATP. […] The inhibitor studies were conducted in quadruplicate.

CRAF-MEK1-ERK2 = assay: C-RAF-MEK1-ERK2 triple cascade FRET assay; format: biochemical; conditions: 100 μM ATP; read-out: Inhibitor IC50, FRET Triple CRAF-MEK1-ERK2
BRAF V599E = target: T13, BRAF V599E (Homo sapiens, UniProt P15056, V600E); assay: B-RAF V599E direct TR-FRET assay (fluorescein-MEK1 substrate); format: biochemical; conditions: 100 μM ATP; read-out: Inhibitor IC50, TR-FRET Direct BRAF V599E
T13 construct: amino acids 416-766 for B-RAF V599E and 306-648 for C-RAF; purchased Invitrogen
Protocol: (§2) Briefly, 200 nM of fluorescein-MEK1 was used as a substrate in a 10 µL assay. Reactions were conducted in the same 384-well plate type and kinase buffer as described for the FRET assays, initiated by the addition of ATP, and allowed to proceed for 1 hour at RT. […] MEK1 antibody in 20 mM Tris, pH 7.5 and 0.01% NP-40 was added for a final well volume of 20 µL with final concentrations of antibody and EDTA at 2 nM and 10 mM, respectively. Following a 1 hour incubation at RT, plates were read as described previously. […] Inhibition assays were performed by adding 2.5 µL of inhibitor to a 5 µL solution of kinase and substrate, followed by 2.5 µL of ATP. […] The inhibitor studies were conducted in quadruplicate.

[4] = system: activation of MEK1 by C-RAF; conditions: ~300 nM MEK1 as substrate; read-out: IC50, inhibition of activation of MEK1 by C-RAF; cited from earlier work
BRAF = target: T14, BRAF (Homo sapiens, UniProt P15056); assay: B-RAF direct TR-FRET assay (fluorescein-MEK1 substrate); format: biochemical; conditions: 100 μM ATP; read-out: Inhibitor IC50, TR-FRET Direct BRAF
T14 construct: The following kinases were all full-length: B-RAF, unactive MEK1, active MEK1, unactive-fluorescein-labeled MEK1, active ERK2, and unactive ERK2; purchased Invitrogen
Protocol: as §2

CRAF [5] = target: T2, CRAF; assay: C-RAF direct TR-FRET assay (fluorescein-MEK1 substrate); format: biochemical; parameters: amino acids 416-766 for B-RAF V599E and 306-648 for C-RAF; purchased Invitrogen
Protocol: as §2

MEK1 activation = conditions: read-out: IC50, inhibition of MEK1 activation in Swiss 3T3 cells; cited from earlier work
MEK1 = conditions: cited from earlier work

Compound: CNC(=O)c1cc(Oc2ccc(NC(=O)Nc3ccc(Cl)c(C(F)(F)F)c3)cc2)ccn1 [BAY-43-9006, Sorafenib]
- inhibition at 1 µM (FLT3): 89%
- % inhibition C-RAF (CRAF [1]): 50%
- inhibition at 1 µM (PDGFR α): 33%
- inhibition at 10 µM (PDGFR α): 75%
- inhibition at 1 µM (HIPK4): 45%
- inhibition at 1 µM (VEGFR3): 40%
- inhibition at 10 µM (PDGFR α D842V): 3%
- inhibition at 1 µM (RET V804L): 44%
- inhibition at 1 µM (RET): 77%
- inhibition at 1 µM (RET Y791F): 80%
- inhibition at 1 µM (FLT3 D835Y): 45%
- inhibition at 10 µM (PDGFR α T674I): 37%

Compound: O=C1Nc2ccc(I)cc2/C1=C/c1cc(Br)c(O)c(Br)c1 [GW5074]
- IC50 (BRAF V599E-MEK1-ERK2): 2 nM
- IC50 (BRAF-MEK1-ERK2): 3 nM
- IC50 (ERK2): > 400 nM
- inhibition of ERK2 direct assay (ERK2): no inhibition
- IC50 (MEK1-ERK2): > 400 nM
- inhibition of MEK1-ERK2 double cascade assay (MEK1-ERK2): no inhibition
- IC50 (CRAF-MEK1-ERK2): 9 nM

Compound: COc1cccc(-c2cc(=O)c3ccccc3o2)c1N [PD98059]
- IC50 (BRAF V599E-MEK1-ERK2): 300 nM
- IC50 (BRAF-MEK1-ERK2): 420 nM
- IC50 [2]: 300 to 420 nM
- IC50 (BRAF V599E): > 50000 nM
- IC50 [4]: 2000 to 7000 nM
- IC50 (ERK2): > 50000 nM
- inhibition of ERK2 direct assay (ERK2): no inhibition
- IC50 (BRAF): > 50000 nM
- IC50 (MEK1-ERK2): > 50000 nM
- inhibition of MEK1-ERK2 double cascade assay (MEK1-ERK2): no inhibition
- inhibition of B-RAF, B-RAF V599E and C-RAF TR-FRET direct assays [3]: did not inhibit
- IC50 (CRAF [5]; 100 μM ATP, read-out: Inhibitor IC50, TR-FRET Direct CRAF): > 50000 nM
- inhibition of C-RAF in direct TR-FRET assay (CRAF [5]; fluorescein-labeled unactivated MEK1 substrate): neither U0126 nor PD98059 significantly inhibited C-RAF
- IC50 (CRAF-MEK1-ERK2): 380 nM

Compound: CN[C@@H]1C[C@H]2O[C@@](C)([C@@H]1OC)n1c3ccccc3c3c4c(c5c6ccccc6n2c5c31)C(=O)NC4 [Staurosporine]
- IC50 (BRAF V599E-MEK1-ERK2): 69 nM
- IC50 (BRAF-MEK1-ERK2): 56 nM

Compound: N#CC(=C(/N)Sc1ccccc1N)/C(C#N)=C(/N)Sc1ccccc1N [U0126]
- IC50 (MEK1 activation): ~70 nM
- IC50 (ERK2): > 50000 nM
- preferential inhibition of MEK1 activation over MEK1 (MEK1; radiometric kinase assays): ~ 100 fold
- IC50 (MEK1; read-out: reported IC50, inhibition of MEK1): 13000 nM
- IC50 (MEK1-ERK2): > 10000 nM
- inhibition of B-RAF, B-RAF V599E and C-RAF TR-FRET direct assays [3]: very weak inhibitory activity
- IC50 (CRAF-MEK1-ERK2): 66 nM

Compound: Cc1ccc(NC(=O)c2cccc(N(C)C)c2)cc1NC(=O)c1ccc(O)cc1 [ZM336372]
- IC50 (BRAF V599E-MEK1-ERK2): 32 nM
- IC50 (BRAF-MEK1-ERK2): 400 nM
- IC50 (ERK2): > 50000 nM
- inhibition of ERK2 direct assay (ERK2): no inhibition
- IC50 (MEK1-ERK2): > 50000 nM
- inhibition of MEK1-ERK2 double cascade assay (MEK1-ERK2): no inhibition
- IC50 (CRAF-MEK1-ERK2): 30 nM
